From US6083951A, “Aryl-substituted pyrimidine sulphonamide compounds as endothelin antagonists” (Zeneca Limited, priority 1994, dated 2000)

Columns and labels:
[1] = test system: Human ETA or ETB receptors; assay: Test A: inhibition of [125I]-Endothelin-1 binding to MEL cell membranes expressing recombinant receptor; settings: [125I]-Endothelin-1 30 pM, receptor subtype (ETA or ETB) not stated
Text: The endothelin receptor antagonist activity of compounds of formula I may be assessed in vitro by their ability to inhibit binding of [^125 I]-Endothelin-1 to its receptors. Human ETA or ETB receptors (sub-types of the endothelin receptor) were expressed in Mouse Erythroleukemic Cells (MEL cells) by using standard molecular techniques (for example, as described by Sambrook J., Fritsch E. F. & Maniatis T. (1989) Molecular Cloning: A Laboratory Manual, 2nd Edition, Cold Spring Harbor Press, U.S.A.). cDNA sequences encoding the human ETA and ETB receptor (Hosoda K. et al (1991), FEBS Lett., 287, 23-26 and Sakamoto A. et al, (1991), Biochem. Biophys Res. Comm., 178, 656-663) are subcloned into pBluescript vector followed by insertion into the MEL cell expression vector pEV as described by Needham et al (1992), Nuc. Acids Res., 20, 997-1003. […]
[^125 I]-Endothelin-1 binding to MEL cell membranes was measured in incubation buffer containing 50 mM Tris HCl, 1 mM CaCl2, 0.05% polyoxyethylenesorbitan monolaurate, 0.1% Bovine Serum Albumin (BSA), 0.02% sodium azide pH 7.4 at 30° C. after 180 minutes incubation. […] Nonspecific binding was measured in the presence of 100 nM unlabelled Endothelin-1. […] The filter discs were punched out and counted in a gamma counter. Compounds are tested in triplicate over a range of concentrations and IC50 (or pIC50) values calculated.

[2] = test system: guinea-pig isolated taenia coli; assay: Test B: inhibition of the relaxant response to endothelin-1 in isolated tissue; format: cell-based; settings: antagonism of endothelin-1 relaxation, pA2 from concentration ratio
Protocol: The endothelin receptor antagonist activity of compounds of formula I may be assessed in vitro in isolated tissues by their ability to inhibit the relaxant response to endothelin-1 in the guinea-pig isolated taenia coli. Guinea pigs of either sex and weight >250 g are killed by cervical dislocation and the caecum removed and placed in cold oxygenated Krebs solution. Strips of Taenia coli are dissected out and approximately 4 cm lengths set up for isotonic recording in a 20 ml organ bath containing oxygenated Krebs solution at 32° C. After a 90-120 minute equilibration period to allow the tissue to spontaneously develop an increased tone, a cumulative concentration-response curve (relaxation) is constructed to endothelin-1 (0.3-10 nM). The tissue is then washed for a period of at least 90 minutes before construction of a second concentration-response curve to endothelin-1 in the presence of the test compound. The test compound is added to the organ bath (at an initial concentration of 20 μM) at least 30 minutes before constructing the second concentration-response curve to endothelin-1. The endothelin-1 concentration ratio for each experiment is determined by comparing the most parallel portions of the control and drug treated concentration-response curves. From this a pA2 is calculated: pA2 =-log[molar drug concentration]+log[concentration ratio-1].

CN(C)c1cccc2c(S(=O)(=O)Nc3ccc(Cl)nn3)cccc12 [Example 1, 5-(dimethylamino)-N-(6-chloro-3-pyridazinyl)-1-naphthalenesulphonamide]
pIC50 in test A [1]: 6.7
pA2 in test B [2]: 6.8
